Reference: US20250115597A1, “TYK2 INHIBITORS AND COMPOSITIONS AND METHODS THEREOF” (LYNK PHARMACEUTICALS CO. LTD., priority 2021, published 2025)
Like-named read-outs stand apart in the source and are kept apart here.

Columns and labels:
[1] = Hepatocytes metabolic stability assay; type: in vitro ADME; conditions: cryopreserved hepatocytes, human hepatocytes, 1.0×10^6 cells/mL; for CLint scaled at 1 μM: read-out: Human hepatocyte Clint(liver); for half-life at 1 μM: read-out: Human hepatocyte stability T1/2
Experimental: Hepatocytes Metabolic Stability Assay
The vials of cryopreserved hepatocytes were removed from the liquid nitrogen container and immediately immersed in a 37° C. water bath for approximately 2 min. The melted ice pellets were transferred into tubes containing 50 mL of pre-warmed thawing medium and mixed well by gently inverting the tubes, and then centrifuged at 500 rpm for 3 minutes at room temperature. The supernatants were discarded, and cell pellets were re-suspended by adding appropriate volumes of pre-warmed incubation medium. The cells viability of each species was determined using Trypan Blue exclusion. Add 50 μL of pre-warmed 2× dosing solution to the wells designated for different time points. Then 50 μL of cells suspension (2×10^6 cells/mL) were added into appropriate wells at corresponding time points of T15, T30, T60, T120. Start timing and put the plate in an incubator at 37° C. For TO sample, add 300 μL of ACN containing internal standard to the wells, mix gently, then add 50 μL of pre-warmed hepatocytes solution (2×10^6 cells/mL). The concentration of test compound was 1 μM and 1.0×10^6 cells/mL in the final incubation. At each corresponding time point, test and control compounds reaction samples were stopped by adding 300 μL acetonitrile containing internal standard. All sample plates were thoroughly mixed and centrifuged at 5000×g for 15 minutes. The supernatants were diluted at ratio of 1:1 with ultra-pure water for test and positive controls. Then submitted for LC-MS/MS analysis.
The analyte/internal standard peak area ratios were converted to percentage remaining with the following equation: […]
The in vitro elimination constant, k of test compounds and control compounds were calculated from a log linear plot of % Remaining versus time, then the half-life (T1/2), the estimation of the in vitro hepatic intrinsic clearance (CLint) values were calculated from substrate disappearance rate in hepatocytes incubation: […]

[2] = Microsomal metabolic stability assay; type: in vitro ADME; conditions: pH 7.4, 0.5 mg/mL protein, 1 μM compound
Procedure, shortened: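 Test article at 1 μM with 0.5 mg/mL microsomal protein and 2 mM NADPH, in 100 mM potassium phosphate pH 7.4 with 1.0 mM EDTA at 37 °C. Sampled at 0–45 min and quantified by LC/MS/MS. T1/2 from the slope of ln % remaining vs time.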

[3] = target: T1, Ba/F3-FL-TYK2-P760L cells (Homo sapiens, UniProt P29597, P760L, cells depend on it); experiment: Anti-proliferative assay, Ba/F3-FL-TYK2-P760L cells (Cell-Titer Glo); type: cell-based; conditions: 72 h, read-out: BaF3-FL-T2P760L IC50
T1 construct: BaF3-FL-T2P760L (nM)
Procedure, shortened: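 Ba/F3 cells made IL-3-independent by TEL-fused or full-length mutant JAK-family kinases, seeded at 2000/well and dosed after 24 h with 9 three-fold dilutions topping at 20 μM. Viability after 72 h at 37 °C, 5% CO2 by Cell-Titer Glo ATP luminescence.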

[4] = target: T2, JAK1-JH2 domain (Homo sapiens, UniProt P23458); experiment: Binding activity test for JH2 domain of JAK1 (Tb-antibody/tracer FRET)
T2 construct: IC50 on JH2 domain activity (nM)
Experimental: Binding Activity Test for […] Domain of JAK1 and TYK2 The compounds are prepared in DMSO for 200× top dose, then serial dilute it with 27-fold for 3 more points. Add 8 μL/well in echo source plate, echo will add 75 nL/well with 3-fold serial dilution for 11 points in assay plate. 75 nL DMSO for high control and low control. […] For low control, add 5 μL/well assay buffer. And then spin down at 1000 rpm and centrifuge for 30 seconds. After enzyme system prepared, add 5 μL of Tb-antibody solution into each wells of assay plate. Spin down at 1000 rpm and centrifuge for 30 sec. After Tb-antibody added, also add 5 μL of tracer into the assay plate. Spin down at 1000 rpm and centrifuge for 30 sec. Incubate for 60 mins at 25° C. firstly and then continue to incubate the plate at 4° C. overnight. Read by envision in FRET mode. The Luminescence value was recorded by a multi-label reader Envision (PerkinElmer).

[5] = target: T3, TYK2-JH2 domain (Homo sapiens, UniProt P29597); experiment: Binding activity test for JH2 domain of TYK2 (Tb-antibody/tracer FRET); conditions: for JAK1/TYK2 selectivity: ratio JAK1-JH2 IC50 / TYK2-JH2 IC50
T3 construct: IC50 on JH2 domain activity (nM)
Procedure, shortened: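 Compounds tested as 11-point 3-fold serial dilutions against the JH2 domain in a Tb-antibody/tracer FRET binding format. Plates incubated 60 min at 25° C, then overnight at 4° C, before FRET reading.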

[6] = human liver microsomes, read-out: Human LM Clint
[7] = human liver microsomes, read-out: Human LM T½
[8] = dog liver microsomes, read-out: Dog LM Clint
[9] = dog liver microsomes, read-out: Dog LM T½
[10] = rat liver microsomes, read-out: Rat LM Clint
[11] = rat liver microsomes, read-out: Rat LM T½

T1 sequence (P29597 whole entry P760L): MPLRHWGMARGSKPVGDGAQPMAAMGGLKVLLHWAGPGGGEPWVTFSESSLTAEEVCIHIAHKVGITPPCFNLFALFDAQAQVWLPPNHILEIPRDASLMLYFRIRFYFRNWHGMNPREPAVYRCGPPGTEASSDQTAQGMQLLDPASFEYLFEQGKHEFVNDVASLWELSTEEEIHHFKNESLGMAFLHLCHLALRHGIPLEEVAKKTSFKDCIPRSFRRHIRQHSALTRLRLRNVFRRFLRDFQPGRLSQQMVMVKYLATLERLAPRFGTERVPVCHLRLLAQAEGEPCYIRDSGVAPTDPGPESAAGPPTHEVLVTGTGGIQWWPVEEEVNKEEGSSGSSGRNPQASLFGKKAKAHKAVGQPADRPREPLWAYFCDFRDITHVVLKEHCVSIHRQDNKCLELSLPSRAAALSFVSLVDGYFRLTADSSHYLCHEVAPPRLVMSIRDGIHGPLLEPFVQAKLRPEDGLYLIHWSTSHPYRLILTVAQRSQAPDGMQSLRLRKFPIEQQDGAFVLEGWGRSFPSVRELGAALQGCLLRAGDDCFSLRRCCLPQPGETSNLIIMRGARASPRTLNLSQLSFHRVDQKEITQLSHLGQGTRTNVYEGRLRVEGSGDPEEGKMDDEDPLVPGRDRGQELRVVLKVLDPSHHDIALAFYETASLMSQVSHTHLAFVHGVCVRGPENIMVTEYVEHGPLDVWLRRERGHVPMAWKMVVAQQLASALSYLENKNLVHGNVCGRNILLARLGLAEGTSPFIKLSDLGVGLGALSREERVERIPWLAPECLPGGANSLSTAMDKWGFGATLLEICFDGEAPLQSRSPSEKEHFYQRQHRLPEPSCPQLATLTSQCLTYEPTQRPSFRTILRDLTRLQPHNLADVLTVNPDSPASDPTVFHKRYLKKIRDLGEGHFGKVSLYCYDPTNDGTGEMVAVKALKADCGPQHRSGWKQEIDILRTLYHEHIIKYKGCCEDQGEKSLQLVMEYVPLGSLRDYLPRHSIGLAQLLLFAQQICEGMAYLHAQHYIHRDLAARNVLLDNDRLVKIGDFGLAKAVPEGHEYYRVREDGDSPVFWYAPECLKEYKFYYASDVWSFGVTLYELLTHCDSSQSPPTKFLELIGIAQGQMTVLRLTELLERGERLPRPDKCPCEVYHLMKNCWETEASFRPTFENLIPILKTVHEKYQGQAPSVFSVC
T2 sequence (P23458 583-855 limits assumed): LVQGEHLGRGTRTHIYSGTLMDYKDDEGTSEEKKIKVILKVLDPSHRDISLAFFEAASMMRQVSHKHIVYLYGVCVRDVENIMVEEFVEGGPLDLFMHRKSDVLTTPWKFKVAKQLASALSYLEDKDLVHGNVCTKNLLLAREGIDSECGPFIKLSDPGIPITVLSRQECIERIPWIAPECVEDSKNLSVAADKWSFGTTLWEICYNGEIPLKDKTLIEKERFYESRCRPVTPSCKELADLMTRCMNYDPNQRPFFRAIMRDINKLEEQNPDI
T3 sequence (P29597 589-875 limits assumed): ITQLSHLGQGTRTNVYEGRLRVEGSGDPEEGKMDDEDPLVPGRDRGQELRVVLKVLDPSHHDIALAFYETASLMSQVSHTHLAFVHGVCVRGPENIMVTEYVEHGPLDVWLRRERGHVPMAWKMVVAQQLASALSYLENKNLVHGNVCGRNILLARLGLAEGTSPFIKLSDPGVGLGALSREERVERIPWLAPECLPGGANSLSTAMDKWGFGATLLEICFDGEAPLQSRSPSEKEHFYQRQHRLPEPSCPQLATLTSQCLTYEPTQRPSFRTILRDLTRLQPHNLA

SMILES | CLint scaled at 1 μM [1] | half-life at 1 μM [1] | microsomal CLint at 1 μM [2, 6] | half-life at 1 μM [2, 7] | GI50 [3] | microsomal CLint at 1 μM [2, 8] | half-life at 1 μM [2, 9] | microsomal CLint at 1 μM [2, 10] | half-life at 1 μM [2, 11] | IC50 [4] | IC50 [5] | JAK1/TYK2 selectivity [5]
[2H]C([2H])([2H])NC(=O)c1cnc(NC(=O)C2CC2)cc1Nc1ccc2cnn(CC)c2c1OC([2H])([2H])[2H] [Example 132, 6-(Cyclopropanecarboxamido)-4-((1-ethyl-7-(methoxy-d3)-1H-indazol-6-yl)amino)-N-(methyl-d3)nicotinamide] | 18.9 mL/min/kg | 93.1 min | 24 µL/min/mg | 57.8 min | 70.8 nM |  |  |  |  |  |  | 
[2H]C([2H])([2H])NC(=O)c1cnc(Nc2ccc(F)cn2)cc1Nc1ncc2cnn(CC)c2c1OC [Example 263, 4-((1-Ethyl-7-methoxy-1H-pyrazolo[4,3-c]pyridin-6-yl)amino)-6-((5-fluoropyridin-2-yl)amino)-N-(methyl-d3)nicotinamide] |  |  | 29.2 µL/min/mg | 47.5 min | 41.7 nM | 97.2 µL/min/mg | 14.3 min | 40.9 µL/min/mg | 33.9 min | 25.4 nM | 0.29 nM | 87.4
[2H]C([2H])([2H])NC(=O)c1cnc(Nc2ccc(F)cn2)cc1Nc1ccn2ncc(C#N)c2c1OC [Example 257, 4-((3-Cyano-4-methoxypyrazolo[1,5-a]pyridin-5-yl)amino)-6-((5-fluoropyridin-2-yl)amino)-N-(methyl-d3)nicotinamide] |  |  | 9.51 µL/min/mg | 146 min | 39.7 nM | 9.01 µL/min/mg | 154 min | 20.2 µL/min/mg | 68.5 min | 3.18 nM | 0.135 nM | 23.5
[2H]C([2H])([2H])NC(=O)c1cnc(NC(=O)C2CC2)cc1Nc1ccc2cnn(CC(N)=O)c2c1OC [Example 259, 4-((1-(2-Amino-2-oxoethyl)-7-methoxy-1H-indazol-6-yl)amino)-6-(cyclopropanecarboxamido)-N-(methyl-d3)nicotinamide] |  |  | 4.39 µL/min/mg | 316 min | > 5000 nM | 9.24 µL/min/mg | 150 min | 4.7 µL/min/mg | 295 min | 79.9 nM | 6.29 nM | 12.7
[2H]C([2H])([2H])NC(=O)c1nnc(NC(=O)C2CC2)cc1Nc1cccc(-c2ncn(C)n2)c1OC [Example 41, 6-(Cyclopropanecarboxamido)-4-((2-methoxy-3-(1-methyl-1H-1,2,4-triazol-3-yl)phenyl)amino)-N-(methyl-d3)pyridazine-3-carboxamide] | < 17.8 mL/min/kg | > 217 min |  |  |  |  |  |  |  |  |  | 
[2H]C([2H])([2H])NC(=O)c1cnc(Nc2ccn(C)n2)cc1Nc1ncc2cnn(CC)c2c1OC [Example 264, 4-((1-Ethyl-7-methoxy-1H-pyrazolo[4,3-c]pyridin-6-yl)amino)-N-(methyl-d3)-6-((1-methyl-1H-pyrazol-3-yl)amino)nicotinamide] |  |  | 12.1 µL/min/mg | 115 min | 278 nM | 16.9 µL/min/mg | 82 min | 15.4 µL/min/mg | 90 min | 73.7 nM | 1.77 nM | 41.4
[2H]C([2H])([2H])NC(=O)c1cnc(Nc2cnn(C3CC3)c2)nc1Nc1ccc2cnn(CC)c2c1OC([2H])([2H])[2H] [Example 137, 2-((1-Cyclopropyl-1H-pyrazol-4-yl)amino)-4-((1-ethyl-7-(methoxy-d3)-1H-indazol-6-yl)amino)-N-(methyl-d3)pyrimidine-5-carboxamide] | 14.4 mL/min/kg | 123 min |  |  | 335 nM |  |  |  |  |  |  | 
[2H]C([2H])([2H])NC(=O)c1cnc(NC(=O)C2CC2)cc1Nc1ccn2ncc(C(C)C#N)c2c1OC (single isomer, unassigned) [Example 251A, (R*)-4-((3-(1-cyanoethyl)-4-methoxypyrazolo[1,5-a]pyridin-5-yl)amino)-6-(cyclopropanecarboxamido)-N-(methyl-d3)nicotinamide] |  |  |  |  | 541 nM |  |  |  |  | 97.2 nM | 1.03 nM | 94.03
[2H]C([2H])([2H])NC(=O)c1cnc(NC(=O)[C@@H]2C[C@H]2F)cc1Nc1ccc2cnn(CC)c2c1OC (relative stereo) [Example 241, 4-((1-Ethyl-7-methoxy-1H-indazol-6-yl)amino)-6-(trans-2-fluorocyclopropanecarboxamido)-N-(methyl-d3)nicotinamide] |  |  |  |  | 161 nM |  |  |  |  | 15.3 nM | 0.534 nM | 28.7
[2H]C([2H])([2H])NC(=O)c1cnc(NC(=O)C2CC2)cc1Nc1cn(CC(F)(F)F)c2ccn(CC)c(=O)c12 [Example 209, 6-(Cyclopropanecarboxamido)-4-((5-ethyl-4-oxo-1-(2,2,2-trifluoroethyl)-4,5-dihydro-1H-pyrrolo[3,2-c]pyridin-3-yl)amino)-N-(methyl-d3)nicotinamide] |  |  |  |  | 52.6 nM |  |  |  |  | 11.2 nM | 0.158 nM | 70.8
[2H]C([2H])([2H])NC(=O)c1cnc(NC(=O)C2CC2)cc1Nc1ccn2ncc(C(C)C(N)=O)c2c1OC (stereo not shown) [Example 252, 4-((3-(1-Amino-1-oxopropan-2-yl)-4-methoxypyrazolo[1,5-a]pyridin-5-yl)amino)-6-(cyclopropanecarboxamido)-N-(methyl-d3)nicotinamide] |  |  |  |  | > 5000 nM |  |  |  |  | 212 nM | 1.68 nM | 125.69
[2H]C([2H])([2H])NC(=O)c1nnc2cc1Nc1cc(cc(-c3ncn(C)n3)c1OC)COCc1nc(ccc1F)N2 [Example 67, 18-Fluoro-10-methoxy-N-(methyl-d3)-11-(1-methyl-1H-1,2,4-triazol-3-yl)-15-oxa-2,4,5,8,21-pentaazatetracyclo[15.3.1.1^{3,7}.1^{9,13}]tricosa-1(20),3,5,7(23),9(22),10,12,17(21),18-nonaene-6-carboxamide] | < 7.35 mL/min/kg | > 240 min | 7.54 µL/min/mg | 184 min | 44.4 nM | 31.9 µL/min/mg | 43.5 min | 47.4 µL/min/mg | 29.3 min |  |  | 
[2H]C([2H])([2H])NC(=O)c1cnc(Nc2ccncn2)cc1Nc1ccc2cnn(C([2H])([2H])[2H])c2c1OC [Example 153, 4-((7-Methoxy-1-(methyl-d3)-1H-indazol-6-yl)amino)-N-(methyl-d3)-6-(pyrimidin-4-ylamino)nicotinamide] |  |  | 50.4 µL/min/mg | 27.5 min | 71.3 nM | 51.9 µL/min/mg | 26.7 min | 90.5 µL/min/mg | 15.3 min | 15.1 nM | 0.455 nM | 33.2
